Results on 6 molecules are retold here after patent US12240844B2 (Voronoi, Inc., priority 2019, dated 2025).

Common to all, as to experiment: scanMAX Kinase panel (DiscoverX), % control
Holding throughout (format): binding
Settings in all cases: <35% = active

The target of assay [1] is T1, CLK3 (Homo sapiens, UniProt P49761).
T1 construct: purchased DiscoverX
The method in brief: (§1)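 Kinase selectivity profiled on the scanMAX panel with compound at 1 uM in DMSO. % control was computed relative to DMSO as negative control (100%) and a positive control compound (0%); values below 35% were counted as activity against that kinase.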

Assay [2] concerns the target T2, ALK (Homo sapiens, UniProt Q9UM73).
T2 construct: purchased DiscoverX
Put shortly: as §1

The target of assay [3] is T3, ALK (C1156Y) (Homo sapiens, UniProt Q9UM73, C1156Y).
T3 construct: purchased DiscoverX
The method in brief:
as §1

Assay [4] deals with T4, CLK4 (Homo sapiens, UniProt Q9HAZ1).
T4 construct: purchased DiscoverX
Put shortly: as §1

For assay [5], the target named is T5, DYRK1B (Homo sapiens, UniProt Q9Y463).
T5 construct: purchased DiscoverX
Put shortly: as §1

Assay [6] concerns the target T6, DYRK2 (Homo sapiens, UniProt Q92630).
T6 construct: purchased DiscoverX
T6 sequence (Q92630 1-601): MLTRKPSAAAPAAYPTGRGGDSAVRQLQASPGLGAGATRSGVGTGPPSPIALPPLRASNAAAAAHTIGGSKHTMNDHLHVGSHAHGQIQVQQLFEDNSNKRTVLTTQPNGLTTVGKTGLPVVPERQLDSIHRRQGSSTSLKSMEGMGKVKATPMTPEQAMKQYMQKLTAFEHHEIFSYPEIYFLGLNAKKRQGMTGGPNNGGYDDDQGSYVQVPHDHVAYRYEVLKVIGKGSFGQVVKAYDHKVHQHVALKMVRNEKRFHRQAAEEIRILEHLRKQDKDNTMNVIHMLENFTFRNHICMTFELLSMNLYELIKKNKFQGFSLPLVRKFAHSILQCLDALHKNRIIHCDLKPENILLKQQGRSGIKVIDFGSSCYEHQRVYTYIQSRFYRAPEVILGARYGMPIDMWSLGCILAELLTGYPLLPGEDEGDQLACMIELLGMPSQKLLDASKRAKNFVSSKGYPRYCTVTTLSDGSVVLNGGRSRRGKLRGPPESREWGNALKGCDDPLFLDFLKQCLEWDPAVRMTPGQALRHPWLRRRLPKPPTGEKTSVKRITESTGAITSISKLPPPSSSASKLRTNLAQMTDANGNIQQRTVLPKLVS
Put shortly:
as §1

Assay [7] deals with T7, CLK2 (Homo sapiens, UniProt P49760).
T7 construct: purchased DiscoverX
Put shortly: as §1

Assay [8] addresses T8, ALK (L1196M) (Homo sapiens, UniProt Q9UM73, L1196M).
T8 construct: purchased DiscoverX
The method in brief: as §1

The target in assay [9] is T9, CLK1 (Homo sapiens, UniProt P49759).
T9 construct: purchased DiscoverX
Put shortly:
as §1

In assay [10] the target is T10, GAK (Homo sapiens, UniProt O14976).
T10 construct: purchased DiscoverX
T10 sequence (O14976 1-1311): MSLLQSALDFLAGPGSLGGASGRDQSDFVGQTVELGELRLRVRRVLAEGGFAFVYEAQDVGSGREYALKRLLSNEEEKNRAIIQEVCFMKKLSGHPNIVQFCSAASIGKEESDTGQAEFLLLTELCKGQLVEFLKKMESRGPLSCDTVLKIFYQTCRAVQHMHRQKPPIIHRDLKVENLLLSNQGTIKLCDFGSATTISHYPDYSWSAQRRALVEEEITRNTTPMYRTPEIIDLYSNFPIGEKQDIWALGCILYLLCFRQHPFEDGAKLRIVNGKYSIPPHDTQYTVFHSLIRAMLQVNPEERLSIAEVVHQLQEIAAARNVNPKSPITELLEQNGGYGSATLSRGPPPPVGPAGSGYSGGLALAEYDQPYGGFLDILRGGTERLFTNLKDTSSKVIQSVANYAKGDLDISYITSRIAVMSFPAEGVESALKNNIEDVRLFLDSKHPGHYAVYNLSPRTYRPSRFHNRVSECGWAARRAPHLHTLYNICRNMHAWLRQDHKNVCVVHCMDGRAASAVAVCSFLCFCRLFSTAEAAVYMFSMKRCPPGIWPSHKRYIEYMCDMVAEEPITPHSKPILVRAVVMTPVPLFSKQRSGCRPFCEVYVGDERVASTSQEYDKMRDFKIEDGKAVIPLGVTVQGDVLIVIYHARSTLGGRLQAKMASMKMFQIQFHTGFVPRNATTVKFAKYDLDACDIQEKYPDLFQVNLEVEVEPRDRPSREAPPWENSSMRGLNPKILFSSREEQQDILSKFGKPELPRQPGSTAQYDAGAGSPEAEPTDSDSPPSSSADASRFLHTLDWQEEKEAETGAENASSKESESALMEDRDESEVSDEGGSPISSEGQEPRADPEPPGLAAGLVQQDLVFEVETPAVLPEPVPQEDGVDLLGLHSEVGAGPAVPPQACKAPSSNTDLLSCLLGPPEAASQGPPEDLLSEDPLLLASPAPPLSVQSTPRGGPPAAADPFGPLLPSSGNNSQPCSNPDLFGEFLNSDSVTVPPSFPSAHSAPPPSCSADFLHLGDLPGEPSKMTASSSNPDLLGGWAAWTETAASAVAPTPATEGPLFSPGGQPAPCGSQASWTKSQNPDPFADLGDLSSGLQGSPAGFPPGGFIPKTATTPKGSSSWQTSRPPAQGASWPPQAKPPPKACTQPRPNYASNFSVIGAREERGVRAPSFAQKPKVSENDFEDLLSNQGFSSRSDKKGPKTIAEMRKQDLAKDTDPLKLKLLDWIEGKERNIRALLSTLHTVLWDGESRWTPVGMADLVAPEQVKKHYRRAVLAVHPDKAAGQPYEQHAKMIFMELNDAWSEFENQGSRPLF
The method in brief: as §1

Assay [11] addresses T11, MYLK (Homo sapiens, UniProt Q15746).
T11 construct: purchased DiscoverX
Put shortly:
as §1

T11 sequence (Q15746 whole entry): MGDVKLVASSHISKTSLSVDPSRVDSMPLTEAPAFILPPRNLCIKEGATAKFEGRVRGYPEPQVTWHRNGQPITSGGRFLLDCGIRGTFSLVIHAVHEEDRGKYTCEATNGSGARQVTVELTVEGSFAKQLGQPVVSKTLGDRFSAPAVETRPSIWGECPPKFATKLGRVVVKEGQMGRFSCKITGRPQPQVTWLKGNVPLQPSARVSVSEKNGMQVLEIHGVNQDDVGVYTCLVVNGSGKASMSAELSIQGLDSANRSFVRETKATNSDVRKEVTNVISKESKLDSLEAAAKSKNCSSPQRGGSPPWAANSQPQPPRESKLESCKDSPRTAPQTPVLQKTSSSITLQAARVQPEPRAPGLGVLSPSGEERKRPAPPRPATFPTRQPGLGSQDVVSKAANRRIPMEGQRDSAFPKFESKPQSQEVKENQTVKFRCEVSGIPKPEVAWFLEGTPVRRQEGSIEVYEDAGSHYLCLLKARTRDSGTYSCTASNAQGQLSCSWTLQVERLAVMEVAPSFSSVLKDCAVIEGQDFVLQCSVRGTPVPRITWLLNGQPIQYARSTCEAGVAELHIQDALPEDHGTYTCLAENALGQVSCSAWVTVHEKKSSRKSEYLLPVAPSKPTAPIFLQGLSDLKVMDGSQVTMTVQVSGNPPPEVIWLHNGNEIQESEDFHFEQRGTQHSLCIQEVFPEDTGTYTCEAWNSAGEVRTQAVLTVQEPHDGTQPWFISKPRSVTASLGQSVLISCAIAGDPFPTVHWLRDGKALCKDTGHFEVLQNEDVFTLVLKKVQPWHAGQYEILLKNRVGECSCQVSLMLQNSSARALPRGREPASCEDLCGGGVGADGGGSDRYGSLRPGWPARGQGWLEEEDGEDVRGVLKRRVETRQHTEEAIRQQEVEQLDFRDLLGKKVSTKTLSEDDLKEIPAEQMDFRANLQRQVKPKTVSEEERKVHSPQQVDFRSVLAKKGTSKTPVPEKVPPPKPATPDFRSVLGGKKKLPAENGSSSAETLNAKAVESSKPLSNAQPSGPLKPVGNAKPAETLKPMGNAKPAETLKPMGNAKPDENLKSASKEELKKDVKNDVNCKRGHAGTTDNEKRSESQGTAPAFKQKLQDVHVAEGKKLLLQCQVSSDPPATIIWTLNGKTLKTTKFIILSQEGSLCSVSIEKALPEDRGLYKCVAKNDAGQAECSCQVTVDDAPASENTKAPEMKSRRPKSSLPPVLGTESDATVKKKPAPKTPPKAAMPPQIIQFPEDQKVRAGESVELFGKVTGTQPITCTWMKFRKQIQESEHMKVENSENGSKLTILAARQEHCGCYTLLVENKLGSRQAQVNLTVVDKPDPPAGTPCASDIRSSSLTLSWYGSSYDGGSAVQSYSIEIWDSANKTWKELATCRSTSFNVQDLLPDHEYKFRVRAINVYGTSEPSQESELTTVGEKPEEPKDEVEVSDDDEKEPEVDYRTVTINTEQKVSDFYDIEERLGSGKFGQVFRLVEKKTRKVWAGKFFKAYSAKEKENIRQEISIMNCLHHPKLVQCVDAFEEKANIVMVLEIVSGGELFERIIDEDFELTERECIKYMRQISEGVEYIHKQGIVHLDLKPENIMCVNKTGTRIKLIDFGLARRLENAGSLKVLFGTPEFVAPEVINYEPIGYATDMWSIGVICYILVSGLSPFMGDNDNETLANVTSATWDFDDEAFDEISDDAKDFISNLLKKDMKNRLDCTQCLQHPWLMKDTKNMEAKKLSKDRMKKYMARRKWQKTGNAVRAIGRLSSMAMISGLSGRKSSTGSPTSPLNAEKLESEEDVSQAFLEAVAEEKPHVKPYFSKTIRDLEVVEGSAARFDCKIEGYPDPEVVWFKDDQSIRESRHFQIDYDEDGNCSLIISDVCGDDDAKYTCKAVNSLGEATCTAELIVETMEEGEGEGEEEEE
T7 sequence (P49760 whole entry): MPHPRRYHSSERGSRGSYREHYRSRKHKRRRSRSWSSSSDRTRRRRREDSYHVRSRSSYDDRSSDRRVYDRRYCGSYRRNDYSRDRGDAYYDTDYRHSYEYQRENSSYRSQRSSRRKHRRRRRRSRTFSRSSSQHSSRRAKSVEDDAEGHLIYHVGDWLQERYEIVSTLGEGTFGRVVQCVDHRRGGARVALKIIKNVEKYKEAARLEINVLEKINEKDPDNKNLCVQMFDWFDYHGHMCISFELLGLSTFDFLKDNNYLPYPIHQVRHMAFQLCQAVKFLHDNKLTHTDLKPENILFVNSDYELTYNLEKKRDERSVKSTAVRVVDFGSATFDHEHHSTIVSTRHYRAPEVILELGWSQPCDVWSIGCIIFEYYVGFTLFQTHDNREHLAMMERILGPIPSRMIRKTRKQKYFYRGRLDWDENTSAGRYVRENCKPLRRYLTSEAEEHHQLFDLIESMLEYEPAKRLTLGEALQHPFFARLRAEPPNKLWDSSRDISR
T2 sequence (Q9UM73 19-1620): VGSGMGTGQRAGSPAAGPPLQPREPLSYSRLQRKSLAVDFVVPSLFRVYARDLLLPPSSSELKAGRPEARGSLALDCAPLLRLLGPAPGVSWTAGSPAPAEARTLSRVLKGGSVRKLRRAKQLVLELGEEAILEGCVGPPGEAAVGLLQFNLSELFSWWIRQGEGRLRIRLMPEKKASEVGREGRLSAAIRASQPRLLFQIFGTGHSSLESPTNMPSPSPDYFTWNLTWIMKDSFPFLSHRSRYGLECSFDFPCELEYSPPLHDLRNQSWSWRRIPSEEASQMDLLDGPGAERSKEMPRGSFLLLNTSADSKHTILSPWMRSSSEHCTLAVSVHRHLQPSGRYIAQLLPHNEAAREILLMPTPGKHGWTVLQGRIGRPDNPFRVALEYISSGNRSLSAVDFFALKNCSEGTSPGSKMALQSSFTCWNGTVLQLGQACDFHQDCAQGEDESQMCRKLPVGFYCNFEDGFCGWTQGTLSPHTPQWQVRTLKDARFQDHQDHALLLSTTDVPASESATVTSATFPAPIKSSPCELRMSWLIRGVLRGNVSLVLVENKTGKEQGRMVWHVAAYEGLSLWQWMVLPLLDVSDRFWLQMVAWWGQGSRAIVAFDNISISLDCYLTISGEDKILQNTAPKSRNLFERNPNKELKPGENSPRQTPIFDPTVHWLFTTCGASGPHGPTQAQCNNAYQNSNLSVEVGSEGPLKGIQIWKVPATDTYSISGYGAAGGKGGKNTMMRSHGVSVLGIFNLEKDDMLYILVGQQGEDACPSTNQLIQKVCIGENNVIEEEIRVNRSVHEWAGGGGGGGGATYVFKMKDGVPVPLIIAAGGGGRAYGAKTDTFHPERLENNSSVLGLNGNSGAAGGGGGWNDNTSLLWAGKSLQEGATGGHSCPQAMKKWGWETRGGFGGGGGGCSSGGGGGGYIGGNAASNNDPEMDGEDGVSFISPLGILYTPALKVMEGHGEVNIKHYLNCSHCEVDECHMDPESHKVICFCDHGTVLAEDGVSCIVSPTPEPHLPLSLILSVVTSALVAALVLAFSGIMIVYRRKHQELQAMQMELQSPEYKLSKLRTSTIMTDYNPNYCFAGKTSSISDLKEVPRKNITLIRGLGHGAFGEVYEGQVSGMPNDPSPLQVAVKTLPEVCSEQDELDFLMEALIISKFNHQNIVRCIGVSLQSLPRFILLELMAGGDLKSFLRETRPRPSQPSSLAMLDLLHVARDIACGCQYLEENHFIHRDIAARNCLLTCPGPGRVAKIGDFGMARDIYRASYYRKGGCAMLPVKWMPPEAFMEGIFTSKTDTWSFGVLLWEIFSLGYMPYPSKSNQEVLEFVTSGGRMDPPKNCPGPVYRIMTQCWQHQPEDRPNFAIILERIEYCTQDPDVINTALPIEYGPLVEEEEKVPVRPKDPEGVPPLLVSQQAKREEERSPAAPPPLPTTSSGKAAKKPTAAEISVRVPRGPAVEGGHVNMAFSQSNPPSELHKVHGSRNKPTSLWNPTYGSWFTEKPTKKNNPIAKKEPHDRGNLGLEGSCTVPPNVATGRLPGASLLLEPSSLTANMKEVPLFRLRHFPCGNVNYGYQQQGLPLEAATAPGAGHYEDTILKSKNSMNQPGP
T5 sequence (Q9Y463 whole entry): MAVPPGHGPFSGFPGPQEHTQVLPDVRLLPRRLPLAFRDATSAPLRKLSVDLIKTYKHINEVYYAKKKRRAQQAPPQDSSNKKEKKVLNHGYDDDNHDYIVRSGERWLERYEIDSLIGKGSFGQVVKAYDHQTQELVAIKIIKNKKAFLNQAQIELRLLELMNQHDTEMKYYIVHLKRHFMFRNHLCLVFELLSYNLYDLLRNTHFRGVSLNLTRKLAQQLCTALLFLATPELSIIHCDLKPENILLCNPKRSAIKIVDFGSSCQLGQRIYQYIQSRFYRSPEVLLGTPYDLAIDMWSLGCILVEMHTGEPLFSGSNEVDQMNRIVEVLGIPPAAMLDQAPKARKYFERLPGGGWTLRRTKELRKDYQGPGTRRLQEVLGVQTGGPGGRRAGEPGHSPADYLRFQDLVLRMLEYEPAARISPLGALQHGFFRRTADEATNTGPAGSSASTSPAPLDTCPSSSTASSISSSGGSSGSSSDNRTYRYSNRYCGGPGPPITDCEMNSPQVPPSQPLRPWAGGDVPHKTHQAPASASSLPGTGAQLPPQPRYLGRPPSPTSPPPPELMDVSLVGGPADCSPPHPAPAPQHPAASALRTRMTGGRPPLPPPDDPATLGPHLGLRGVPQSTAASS
T9 sequence (P49759 whole entry): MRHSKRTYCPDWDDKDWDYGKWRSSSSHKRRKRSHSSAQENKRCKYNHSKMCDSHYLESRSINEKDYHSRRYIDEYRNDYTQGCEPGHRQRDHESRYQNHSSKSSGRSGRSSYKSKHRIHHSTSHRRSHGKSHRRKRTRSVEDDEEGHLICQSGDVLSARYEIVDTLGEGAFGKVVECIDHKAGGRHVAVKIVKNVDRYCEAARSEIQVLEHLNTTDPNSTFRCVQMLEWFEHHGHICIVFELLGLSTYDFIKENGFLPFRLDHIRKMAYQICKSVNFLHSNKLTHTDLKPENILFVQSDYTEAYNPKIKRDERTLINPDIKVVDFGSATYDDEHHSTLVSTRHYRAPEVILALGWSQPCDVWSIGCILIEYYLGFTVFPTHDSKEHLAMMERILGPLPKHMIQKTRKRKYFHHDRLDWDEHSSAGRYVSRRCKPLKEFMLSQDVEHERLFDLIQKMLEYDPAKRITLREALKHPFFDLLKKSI

Consider `CCNc1cc(Nc2ccc(P3(=O)CCN(C4CC4)CC3)cc2OC)nc2[nH]cc(C(F)(F)F)c12` [Example 206, 1-cyclopropyl-4-(4-((4-(ethylamino)-3-(trifluoromethyl)-1H-pyrrolo[2,3-b]pyridin-6-yl)amino)-3-methoxyphenyl)-1,4-azaphosphinane 4-oxide], for which the remaining binding at 1 µM in [1] came out at 91%; in assay [2], 9%; in assay [3], 5.3%; in assay [4], 1.2%; in assay [5], 0%; in assay [6] it was 45%. For the same molecule, the remaining binding at 1 µM in assay [7] worked out at 3.1%; in assay [8], 23%; in assay [9], 8.5%; in [10] it was 29%; in [11] it was 3%.
Take `COCCNc1cc(Nc2ccc(P3(=O)CCN(C4CC4)CC3)cc2OC)nc2[nH]cc(C(F)(F)F)c12` [Example 207, 1-cyclopropyl-4-(3-methoxy-4-((4-((2-methoxyethyl)amino)-3-(trifluoromethyl)-1H-pyrrolo[2,3-b]pyridin-6-yl)amino)phenyl)-1,4-azaphosphinane 4-oxide]: the remaining binding at 1 µM was 66% in assay [1]; 5.9% in assay [2]; 1.8% in assay [3]; 0.55% in assay [4]; 0% in assay [5]; 18% in [6]. For the same molecule, the remaining binding at 1 µM is 7.2% in [7]; 10% in assay [8]; 5.6% in [9]; 38% in assay [10]; 5.3% in assay [11].
For `CNc1cc(Nc2ccc(C(=O)N3CC[C@H](N4CCOCC4)C3)c3c2OCC3)nc2[nH]cc(C(F)(F)F)c12` [Example 217, (S)-(7-((4-(methylamino)-3-(trifluoromethyl)-1H-pyrrolo[2,3-b]pyridin-6-yl)amino)-2,3-dihydrobenzofuran-4-yl)(3-morpholinopyrrolidin-1-yl)methanone], the remaining binding at 1 µM in assay [1] came to 19%; in assay [2], 3.8%; in assay [3] it was 3.9%; in assay [4] it was 8.2%; in assay [5] it was 1.4%; in assay [6], 9.7%. Besides, the remaining binding at 1 µM in [7] was 0.55%; in assay [8], 18%; in assay [9] it was 2.4%; in [10], 9.9%; in assay [11], 1.8%.
Take `O=C(c1ccc(Nc2cc(C3CC3)c3c(C(F)(F)F)c[nH]c3n2)c2c1OCCO2)N1CCC(N2CCOCC2)CC1` [Example 221, (8-((4-cyclopropyl-3-(trifluoromethyl)-1H-pyrrolo[2,3-b]pyridin-6-yl)amino)-2,3-dihydrobenzo [b] [1,4]dioxin-5-yl)(4-morpholinopiperidin-1-yl)methanone]: the remaining binding at 1 µM was 60% in assay [1]; 17% in [2]; 12% in assay [3]; 0.25% in assay [4]; 0.45% in assay [5]; 18% in assay [6]. Also, the remaining binding at 1 µM in [7] stood at 8.2%; in [8], 28%; in [9] it was 7.5%; in [10], 12%; in [11], 30%.
Regarding `O=C(c1ccc(Nc2cc(C3CC3)c3c(C(F)(F)F)c[nH]c3n2)c2c1CCO2)N1CC[C@H](N2CCOCC2)C1` [Example 237, (S)-(7-((4-cyclopropyl-3-(trifluoromethyl)-1H-pyrrolo[2,3-b]pyridin-6-yl)amino)-2,3-dihydrobenzofuran-4-yl)(3-morpholinopyrrolidin-1-yl)methanone], the remaining binding at 1 µM in assay [1] worked out at 58%; in assay [2], 14%; in [3] it was 9.7%; in assay [4], 0.55%; in assay [5] it was 1.4%; in [6], 62%. Further, the remaining binding at 1 µM was determined as 0% in assay [7]; 15% in assay [8]; 3.6% in assay [9]; 15% in [10]; 15% in assay [11].
In the case of `O=C(c1ccc(Nc2cc(C3CC3)c3c(C(F)(F)F)c[nH]c3n2)c2c1CCO2)N1CC[C@@H](N2CCOCC2)C1` [Example 238, (R)-(7-((4-cyclopropyl-3-(trifluoromethyl)-1H-pyrrolo[2,3-b]pyridin-6-yl)amino)-2,3-dihydrobenzofuran-4-yl)(3-morpholinopyrrolidin-1-yl)methanone], the remaining binding at 1 µM in assay [1] was 56%; in [2] it was 67%; in [3], 42%; in assay [4] it was 0.35%; in assay [5] it was 0.7%; in assay [6] it was 89%. In addition, the remaining binding at 1 µM in [7] is 0.25%; in [8], 58%; in assay [9], 2.4%; in assay [10], 27%; in assay [11], 33%.
